Reference: US20250277793A1, “COMPOSITIONS AND METHODS FOR CANCER DIAGNOSIS” (AOA Dx, priority 2020, published 2025)
Values joined by “and” are separate entries in the source; they are usually repeats but may differ in a detail not shown here. Identical values can stand only once.

Legend:
anti-GD3 mAbs = assay: Direct binding ELISA, GD3 versions with anti-GD3 antibody; set-up: species or system mouse; conditions: antigen immobilized 10 ng/well, mAb 7 nM final; for OD(450 nm): individual replicate wells; for OD(450 nm) Average: mean of 3
Description: (§1) Native gangliosides (GD2 or GD3, Control), Tria-tri-GD2, Tria-tri-GD3, PAMAM-GD2, PAMAM-GD3, or the monomeric precursors AP-GD2 or AP-GD3 were immobilized onto polystyrene Corning Strip Well 96-well plates (10 ng/well). After bocking all wells with albumin (BSA), the wells were reacted for binding by anti-GD2 or […] (7 nM final) or with serum from mice vaccinated with PAMAM-GD2 (1:75 dilution). Secondary antibody used was horseradish peroxidase (HRP)-conjugated anti-mouse IgG (Sigma). BG=background control.

[1] = Water solubility of intermediate carbohydrates; format: physicochemical; conditions: read-out: water soluble
Description: p-Aminophenylether-b-D-lactopyranoside (AP-Lac, from Toronto Research Chemicals) was used to enzymatically synthesize water soluble (>20 mg/ml) AP-GD2 and AP-GD3 intermediate carbohydrates. The synthesis of AP-GD2 included […] of AP-GD3 (4 mM), […] of UDP-GalNAc (5.4 mM), and 10.5 units of CgtA (construct CJL-30), 10 mM MnCl2 and 24 mM Hepes pH 7.0 in a final volume of 55 ml. The reaction mixture was incubated at 37° C. for 6.5 hr. Insoluble material was removed by centrifugation at 27,000 g for 15 min and the enzyme was removed by ultrafiltration using a 10 kDa membrane cut off. The filtrate was loaded on SepPak C18 5 g column (waters Corp) and the product was eluted with water while unidentified contaminants remained in the column. The product was further purified by anion exchange chromatography on HiTrapQ (GE Healthcare) using a gradient of 0-0.3 M NH4HCO3 and by size exclusion chromatography on a Superdex Peptide 10/300 GL column (GE Healthcare). The measured molecular weights of AP-GD2 (1,218 g/mol) and AP-GD3 (927 g/mol) correspond to expected values. Structures were verified by 1D and 2D NMR spectroscopy and mass spectrometry (EI-MS). […]

[2] = tested on: antisera raised against PAMAM-GD3; assay: Direct binding ELISA, GD3 versions with vaccinated mouse sera; set-up: species or system mice; conditions: antigen 10 ng/well, serum 1:75 dilution; for OD(450 nm): individual replicate wells; for OD(450 nm) Average: mean of 3
[3] = tested on: serum from mice vaccinated with PAMAM-GD2; assay: Direct binding ELISA, GD2 versions with vaccinated mouse sera; conditions: antigen 10 ng/well, serum 1:75 dilution; for OD(450 nm): individual replicate wells; for OD(450 nm) Average: mean of 3
Description: as §1

anti-GD2 mAbs = assay: Direct binding ELISA, GD2 versions with anti-GD2 antibody; set-up: species or system mouse; conditions: antigen immobilized 10 ng/well, mAb 7 nM final; for OD(450 nm): individual replicate wells; for OD(450 nm) Average: mean of 3
Description: as §1

OD(450 nm) (anti-GD3 mAbs) | OD(450 nm) Average (anti-GD3 mAbs) | solubility [1] | OD(450 nm) [3] | OD(450 nm) Average [3] | OD(450 nm) (anti-GD2 mAbs; listed as Control) | OD(450 nm) Average (anti-GD2 mAbs) | OD(450 nm) (anti-GD2 mAbs) | SMILES | OD(450 nm) [2] | OD(450 nm) Average [2]
0.483 and 0.558 and 0.568 | 0.5363 | > 20 mg/mL |  |  |  |  |  | CC(=O)NC1C(O)CC(OC2C(O)C(CO)OC(OC3C(CO)OC(Oc4ccc(N)cc4)C(O)C3O)C2O)(C(=O)O)OC1[C@H](O)C(CO)OC1(C(=O)O)CC(O)C(NC(C)=O)C([C@H](O)[C@H](O)CO)O1 (stereo partly drawn) [AP-GD3, p-amino phenyl ether-GD3] | 0.483 and 0.558 and 0.568 | 0.5363
0.602 and 0.465 and 0.493 | 0.52 |  |  |  |  |  |  | CC/C=C/C(O)C(CO[C@@H]1OC(CO)[C@@H](O[C@@H]2OC(CO)[C@H](O)C(O[C@]3(C(=O)O)CC(O)[C@@H](NC(C)=O)C([C@H](O)[C@@H](CO)O[C@]4(C(=O)O)CC(O)[C@@H](NC(C)=O)C([C@H](O)[C@H](O)CO)O4)O3)C2O)C(O)C1O)NC(=O)CC (stereo partly drawn) [GD3, reference compound] | 0.646 and 0.534 and 0.555 | 0.5783
 |  |  | 1.319 and 1.23 and 1.128 | 1.226 | 1.174 and 1.069 and 1.072 | 1.105 |  | CC/C=C/C(O)C(CO[C@@H]1OC(CO)[C@@H](O[C@@H]2OC(CO)[C@H](O[C@@H]3OC(CO)[C@H](O)C(O)C3NC(C)=O)C(O[C@]3(C(=O)O)CC(O)[C@@H](NC(C)=O)C([C@H](O)[C@@H](CO)O[C@]4(C(=O)O)CC(O)[C@@H](NC(C)=O)C([C@H](O)[C@H](O)CO)O4)O3)C2O)C(O)C1O)NC(=O)CC (stereo partly drawn) [GD2, reference compound] |  | 
 |  | > 20 mg/mL | 0.694 and 0.587 and 0.635 | 0.6387 |  | 0.5363 | 0.483 and 0.558 and 0.568 | CC(=O)NC1C(OC2C(CO)OC(OC3C(CO)OC(Oc4ccc(N)cc4)C(O)C3O)C(O)C2OC2(C(=O)O)CC(O)C(NC(C)=O)C([C@H](O)C(CO)OC3(C(=O)O)CC(O)C(NC(C)=O)C([C@H](O)[C@H](O)CO)O3)O2)OC(CO)C(O)C1O (stereo partly drawn) [AP-GD2, p-amino phenyl ether-GD2] |  | 
